Source: patent US20150328199A1, “METHODS AND COMPOSITIONS USING 4-AMINO-2-(2,6-DIOXO-PIPERIDINE-3-YL)-ISOINDOLINE-1,3-DIONE FOR TREATMENT OF CANCERS” (Celgene Corporation, priority 2014, published 2015)

Experiments:
[1] = Comparative population pharmacokinetic analysis of pomalidomide with thalidomide and lenalidomide (two-compartment PPK model); format: in vivo, human; settings: for drug exposure in central (plasma) compartment, patients versus healthy subjects: FIG. 7A, 8A; for drug exposure in peripheral compartment, patients versus healthy subjects: FIG. 7B, 8B; for relation of disease stage and peripheral compartment exposure in patients: FIG. 9
Description: Population pharmacokinetic analysis of pomalidomide was compared with that of 2-(2,6-dioxopiperidin-3-yl)-1H-isoindole-1,3(2H)-dione (“thalidomide”) and 3-(4-amino-1-oxo-1,3-dihydro-2H-isoindo1-2-yl)piperidine-2,6-dione (“lenalidomide” also known as “Revlimid”), on available data from healthy subjects and MM patients. The results of analyses are provided in Table 7 and FIGS. 3A to FIGS. 9. FIGS. 3A and 3B provide concentration vs. time profiles for thalidomide, lenalidomide and pomalidomide.
The data of thalidomide and revlimid are based on a population pharmacokinetic analysis performed on data from studies using a two-compartment PPK model.

[2] = Clinical pharmacokinetics of pomalidomide after single oral dose (non-compartmental analysis); format: in vivo, human
Procedure: Pomalidomide is absorbed with a maximum plasma concentration (Cmax) at a median time (tmax) between 2 hours and 3 hours after clinically relevant doses. Pomalidomide is >73% absorbed following administration of a single oral dose. […] Based on non-compartmental analysis, mean (percent coefficient of variation [%CV]) apparent volume of distribution (Vz/F) of pomalidomide after a single dose ranges from 74 L (20%) to 138 L (30%) across a dose range of 1 mg to 10 mg. Pomalidomide is extensively metabolized via multiple metabolic pathways and is eliminated in human via multiple pathways.

| SMILES | drug exposure in central (plasma) compartment, patients versus healthy subjects [1] | drug exposure in peripheral compartment, patients versus healthy subjects [1] | CL/F ([1]; HNV (healthy subjects)) [L/h] | KA ([1]; HNV (healthy subjects)) [h⁻¹] | Q/CL ([1]; HNV (healthy subjects)) [%] | Q/F ([1]; HNV (healthy subjects)) [L/h] | Relative Potential of Deep Penetration ([1]; HNV (healthy subjects)) [%] | V2/F ([1]; HNV (healthy subjects)) [L] | V3/F ([1]; HNV (healthy subjects)) [L] | V3/V2 ([1]; HNV (healthy subjects)) [%] | Tlag ([1]; HNV (healthy subjects)) [h] | CL/F ([1]; Patients (MM)) [L/h] | Q/CL ([1]; Patients (MM)) [%] | Q/F ([1]; Patients (MM)) [L/h] | Tlag ([1]; Patients (MM)) [h] | also measured |
| --- | --- | --- | --- | --- | --- | --- | --- | --- | --- | --- | --- | --- | --- | --- | --- | --- |
| O=C1CCC(N2C(=O)c3ccccc3C2=O)C(=O)N1 (stereo not drawn) [Thalidomide, 2-(2,6-dioxopiperidin-3-yl)-1H-isoindole-1,3(2H)-dione] | comparable | comparable | 9.66 | 0.536 | 4 | 0.355 | 0.6 | 83.3 | 13.5 | 16 | – | – | – | – | – | – |
| Nc1cccc2c1C(=O)N(C1CCC(=O)NC1=O)C2=O (stereo not drawn) [Pomalidomide, 4-amino-2-(2,6-dioxo-piperidine-3-yl)-isoindoline-1,3-dione] | comparable | higher drug exposure | 8.52 | 1.25 | 11.8 | 1.01 | – | – | – | – | 0.385 | 7.78 | 48 | 3.75 | 0.206 | Tmax ([2]; human, plasma, oral, after clinically relevant doses, read-out: median time (tmax) of maximum plasma concentration): 2 to 3 h; half-life ([2]; human, plasma, oral, read-out: geometric mean terminal half-life (t1/2) (converted)): ~7.5 h; Cmax versus dose ([2]; single dose): less than dose proportional; systemic exposure (AUC) versus dose ([2]; single dose): approximately dose-proportional; absorbed ([2]; single oral dose): > 73%; relation of disease stage and peripheral compartment exposure in patients [1]: higher disease stage were correlated with higher peripheral compartment pomalidomide exposure; relation of disease stage and peripheral compartment exposure in patients ([1]; listed as 4-amino-2-(2,6-dioxo-piperidine-3-yl)-isoindoline-1,3-dione): higher disease stage was correlated with higher peripheral compartment; KA ([1]; Patients (MM)): 1.25 h⁻¹ |
| Nc1cccc2c1CN(C1CCC(=O)NC1=O)C2=O (stereo not drawn) [Revlimid, 3-(4-amino-1-oxo-1,3-dihydro-2H-isoindo1-2-yl)piperidine-2,6-dione] | comparable | comparable | 16.8 | 5.41 | 12.7 | 2.14 | 2.1 | 56.5 | 9.49 | 16.8 | 0.25 | 10.2 | 11.1 | 1.13 | 0.235 | Relative Potential of Deep Penetration ([1]; Patients (MM)): 1.9%; V2/F ([1]; Patients (MM)): 48.3 L; V3/F ([1]; Patients (MM)): 8.36 L; V3/V2 ([1]; Patients (MM)): 17.3% |
